Reference: patent US9011882B2, “Dimethylarginine dimethylaminohydrolase inhibitors and methods of use thereof” (The Board of Trustees of the Leland Stanford Junior …, priority 2012, dated 2015)
“Also recorded” adds a separate entry of the source.

Experiments:
human DDAH1 [1] = target: T1, human DDAH1 (Homo sapiens (Human), UniProt O94760); experiment: Inhibitors of human DDAH-1 validated in full dose-response curves (Table 1); assay type: biochemical; conditions: for IC50: Assay Explorer software
Description: (§1) Over 130,000 small molecules deposited in the Stanford High-throughput Bioscience Center (HTBC) were screened using the enzymatic assay to identify chemicals that regulate DDAH activity. In brief, recombinant human DDAH1 (rhDDAH1) was mixed with ADMA in the presence of screening buffer in 384-well plates using a Staccato multidrop. Small molecules (100 nL each) were then added to the wells using a robotic arrayer to yield a final compound screening concentration of up to 50 μM. Plates were incubated at 37° C. for 4 hours. Subsequently, color developing reagent (containing 2 volumes of Antipyrine and 1 volume of 2,3-Butanedione oxime reagents) was added using Velocity 11 system and the plates were sealed using an automated plate sealer. Finally, color was developed by incubating the plates at 60° C. for 90 minutes prior to spinning them at 1,500 rpm for 5 minutes. In this assay absorbance is proportional to the concentration of citrulline generated by DDAH, and was measured using an AnalystGT plate reader at 485 nm using a dichroic beamsplitter. The signal-to-noise ratio of separation was calculated using an established formula in Zhang. (Zhang, J. H., Chung, T. D. & Oldenburg, K. R. A Simple Statistical Parameter for Use in Evaluation and Validation of High Throughput Screening Assays. J Biomol Screen 4, 67-73 (1999)).
Inhibitors were defined as compounds that reduce absorbance by at least 30% compared to control wells. The hits were validated using 8-point full dose response study (50 μM to 0.39 μM in serial dilutions). […] To determine which of these hits were true inhibitors of DDAH activity, a modification of a validated secondary fluorometric assay was used, as described below. […]

human DDAH1 [2] = target: T1, human DDAH1; experiment: Fluorimetric CPM assay of DDAH activity (SMTC substrate); assay type: biochemical; conditions: for IC50: CPM assay, 100 μM SMTC, Assay Explorer software, read-out: IC50; for inhibition of DDAH activity, CPM fluorometric validation: fresh powders from vendors, vs vehicle
Description: (§2) The activity of human DDAH1 was quantified using fluorimetric assay by incubating the enzyme with an artificial substrate S-methyl-thiocitrulline (SMTC). DDAH metabolizes SMTC into L-citrulline and methanethiol (CH3—SH). The thiol released from the reaction can be monitored fluorimetrically by adding 7-Diethylamino-3-(4-maleimidophenyl)-4-methylcoumarin (CPM).
as §2, with “(SMTC), as described in Example 1.” for “(SMTC).”
For the secondary assay, a fluorimetric assay that uses SMTC as a substrate was adapted. DDAH metabolizes SMTC into L-citrulline and methanethiol (CH3—SH). In brief, DDAH (30 nM final concentration) was mixed with SMTC (100 μM final concentration), CPM (50 μM final concentration) and screening buffer (containing a final concentration of 0.01% Triton-X100 and 1 mM EDTA). The reaction mix was added to black 384-well plates to validate primary hits that modulate DDAH activity. The release of CH3—SH was monitored fluorimetrically by adding 7-Diethylamino-3-(4-maleimidophenyl)-4-methylcoumarin (CPM) as described in Linsky (Linsky, T. & Fast, W. A continuous, fluorescent, high-throughput assay for human dimethylarginine dimethylaminohydrolase-1. J Biomol Screen 16, 1089-1097 (2011)).

[3] = target: recombinant human DDAH1 (rhDDAH1) (Homo sapiens (Human), UniProt O94760); experiment: Colorimetric L-citrulline assay of DDAH activity (ADMA substrate; high throughput screen and orthogonal validation); assay type: biochemical; conditions: for IC50: high throughput screen of library copies (BMF-6, BMF-7, BMF-8, MicroSource, LOPAC), dose-dependent inhibition
Description: (§3) The enzymatic activity of DDAH was monitored using a colorimetric assay that detects product (L-citrulline) formation from the substrate ADMA. In brief, recombinant human DDAH1 (rhDDAH1) was mixed with ADMA in the presence of screening buffer in 384-well plates. Plates were incubated at 37° C. for 4 hours. Subsequently, color developing reagent (containing 2 volumes of Antipyrine and 1 volume of 2,3-Butanedione oxime reagents) was added and the plates were incubated at 60° C. for 90 min prior to spinning them at 1,500 rpm for 5 min. In this assay absorbance is proportional to the concentration of citrulline generated by DDAH, and was measured using an AnalystGT plate reader at 485 nm using a dichroic beamsplitter.
as §3, with “ADMA, as described in Example 1.” for “ADMA.”, “antipyrine” for “Antipyrine”
The L-citrulline assay was based upon an original test-tube method developed by Prescott and Jones in 1969 (Prescott, L. M. & Jones, M. E. Modified methods for the determination of carbamyl aspartate. Anal Biochem 32, 408-419 (1969)), which was adapted and optimized for a microplate format. Subsequently, the activity of DDAH was quantified by detecting its conversion of ADMA to citrulline using the optimized protocol. The assay was scaled up to a 384-well format for high throughput chemical screening.
as §1
In brief, various amounts of rhDDAH1 (0.1 to 10 μM) were incubated with various concentrations of ADMA (1 μM to 8 mM) for various time points (30 min to 10 h) at room temperature or 37° C. […] The reactions were stopped and color was developed as described above followed by incubation at 60° C. for 90 min. Absorbance, proportional to DDAH activity, was measured at 485 nm±20 nm. In order to screen the entire library, the biochemical properties of the assay were optimized, as described above. The technique was modified so as to reduce the number of steps and facilitate robotic handling and throughput. Subsequently, HTS was performed using 384-well plates. […]

[4] = tested on: human microvascular endothelial cells (HMEC-1); experiment: Intracellular ADMA by ELISA in endothelial cells; assay type: cell-based; conditions: 20 μM, 24 hours, compared to vehicle control
Description: (§4) First, human microvascular endothelial cells (HMEC-1; ATCC) were seeded in 75 cm^2 cell culture flasks and cultured in fully supplemented DMEM (Invitrogen cat #11995; supplemented with 10% fetal bovine serum (FBS), 4 mM HEPES; GIBCO 15630 and penicillin/streptomycin). The cells were incubated at 37° C./5% CO2 until ˜60% confluency. The cells were then washed with phosphate buffered saline (PBS) and plain DMEM (DMEM with no addition of serum or the other supplements) was mixed with esomeprazole (20 μM final concentration from 100 mM stock) and added to the cells. […] After ˜4 hrs of incubation, the media was aspirated from each flask and the cells were cultured in fully supplemented DMEM as described above and incubated at 37° C./5% CO2 for another 20 hrs. The serum was initially withdrawn due to the possibility that esomeprazole would interact with Cys containing serum proteins and fail to internalize at effective concentrations.
After 24 hrs, the cells were harvested. Total cellular protein was estimated as described and ADMA was measured by enzyme-linked immunosorbent assay (ELISA) following the manufacturer's recommendations; DLD Diagnostika, Hamburg, Germany).
as §4, with “FBS,” for “fetal bovine serum (FBS),”, “PBS” for “phosphate buffered saline (PBS)”, “PD 404” for “esomeprazole”, “conc” for “concentration”, “The serum was initially withdrawn due to the possibility that esomeprazole would interact with Cys containing serum proteins and fail to internalize at effective concentrations.” left out
After 24 hours, the cells were harvested. Total cellular protein was estimated as described and ADMA was measured by ELISA following the manufacturer's recommendations; DLD Diagnostika, Hamburg, Germany).

[5] = fresh powders, FIG. 3, vs vehicle
[6] = 50 μM, compared to vehicle control

T1 sequence (O94760 whole entry): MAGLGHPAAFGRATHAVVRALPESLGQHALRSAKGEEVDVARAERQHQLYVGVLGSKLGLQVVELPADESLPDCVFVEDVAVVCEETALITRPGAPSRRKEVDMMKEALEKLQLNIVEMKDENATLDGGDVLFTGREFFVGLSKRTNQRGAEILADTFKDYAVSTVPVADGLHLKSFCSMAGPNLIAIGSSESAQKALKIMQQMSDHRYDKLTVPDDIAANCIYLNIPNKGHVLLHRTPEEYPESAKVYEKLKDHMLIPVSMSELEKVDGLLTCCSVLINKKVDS
recombinant human DDAH1 (rhDDAH1), sequence (O94760 whole entry): as above

Row | Hill Slope (human DDAH1 [1]) | IC50 (human DDAH1 [1]) | Compound | other results
1 | 1.8 | 13.1 µM | O=C1CC(N2CCCCCC2)C(=O)N1c1cccc2ccccc12 (centres unmarked) | –
2 | 1.6 | 23.3 µM | O=C(O)c1ccc(N2C(=O)C=CC2=O)cc1 | –
3 | 1.1 | 21.2 µM | Cc1ccc(NC(=O)/C=C/C(N)=O)cc1 | –
4 | 1.3 | 17.7 µM | N/C=C1\C=C(c2ccccc2)OC1=S | –
5 | 1.1 | 45.8 µM | Cc1ccc(-c2ccc(CCC(=O)O)o2)cc1 | –
6 | 1.7 | 13.7 µM | Cc1cc(C)c2c(=O)n(CC(=O)NC(C)c3ccccc3)sc2n1 (centres unmarked) | –
7 | 1.7 | 8.6 µM | Cc1cc(C)c2c(=O)n(CC(=O)NC3CCCC(C)C3C)sc2n1 (centres unmarked) | –
8 | 1.6 | 12.8 µM | Cc1cc(C)c2c(=O)n(CC(=O)NCCCSC3CCCCC3)sc2n1 | –
9 | 2.3 | 7.1 µM | CCOCCCNC(=O)Cn1sc2nc(C)cc(C)c2c1=O | –
10 | 1.6 | 14.1 µM | Cc1cc(C)c2c(=O)n(CC(=O)NC(C)CCc3ccccc3)sc2n1 (centres unmarked) | –
11 | 1.5 | 11 µM | Cc1cc(C)c2c(=O)n(CC(=O)NCc3ccc4c(c3)OCO4)sc2n1 | –
12 | 1.2 | 13.4 µM | Cc1cc(C)c2c(=O)n(CC(=O)NCCc3ccc(Cl)cc3)sc2n1 | –
13 | 1.5 | 10.5 µM | CCOc1ccc(CCNC(=O)Cn2sc3nc(C)cc(C)c3c2=O)cc1 | –
14 | 1.5 | 9.9 µM | COc1ccc(OC)c(CCNC(=O)Cn2sc3nc(C)cc(C)c3c2=O)c1 | –
15 | 1.7 | 5.1 µM | CCCCNC(=O)Cn1sc2nc(C)cc(C)c2c1=O | –
16 | 2 | 11.8 µM | Cc1cc(C)c2c(=O)n(CC(=O)NCCC3=CCCCC3)sc2n1 | –
17 | 1.4 | 3.3 µM | COCCNC(=O)Cn1sc2nc(C)cc(C)c2c1=O | –
18 | 0.4 | 39.9 µM | Cc1cc(C)c2c(=O)n(CC(=O)NCc3ccccc3Cl)sc2n1 | –
19 | – | – | COc1cnn(-c2ccccc2)c(=O)c1S [4-MMP, 4-mercapto-5-methoxy-2-phenyl-3(2H)-pyridazinone] | IC50 (human DDAH1 [2]): 12.7 µM
20 | 1 | 13.2 µM | O=c1[nH]sc2ccccc12 [Benzo[d]isothiazol-3(2H)-one] | –
21 | – | – | COc1ccc2nc([S@@+]([O-])Cc3ncc(C)c(OC)c3C)[nH]c2c1 [Esomeprazole] | inhibition of DDAH activity, orthogonal colorimetric assay [3, 5]: significantly inhibited DDAH activity; increase in intracellular ADMA [4]: ~37%; inhibition of DDAH activity, CPM fluorometric validation (human DDAH1 [2]): inhibited DDAH activity significantly
22 | – | – | Cc1c(OCC(F)(F)F)ccnc1C[S+]([O-])c1nc2ccccc2[nH]1 (centres unmarked) [Lansoprazole] | IC50 [3]: 51 µM; inhibition of DDAH activity, CPM fluorometric validation (human DDAH1 [2]): inhibited DDAH activity significantly
23 | – | – | N=C1Sc2ccccc2C2=NCCCN12 [PD 404] | inhibition of DDAH activity, orthogonal colorimetric assay [3, 6]: significantly inhibited DDAH activity; IC50 [3]: 8.71 µM; increase in intracellular ADMA [4]: ~84%; inhibition of DDAH activity, CPM fluorometric assay (human DDAH1 [2]; [6]): directly inhibit DDAH activity; also recorded: inhibited DDAH activity significantly
24 | – | – | COc1ccnc(C[S+]([O-])c2nc3cc(OC(F)F)ccc3[nH]2)c1OC (centres unmarked) [Pantoprazole] | IC50 [3]: 63 µM; inhibition of DDAH activity, CPM fluorometric validation (human DDAH1 [2]): inhibited DDAH activity significantly
25 | – | – | COCCCOc1ccnc(C[S+]([O-])c2nc3ccccc3[nH]2)c1C (centres unmarked) [Rabeprazole] | inhibition of DDAH activity, orthogonal colorimetric assay [3, 5]: significantly inhibited DDAH activity; inhibition of DDAH activity, CPM fluorometric validation (human DDAH1 [2]): inhibited DDAH activity significantly
26 | – | – | CN=c1nc(-c2ccccc2)n(-c2ccccc2)s1 [SCH-202676] | IC50 (human DDAH1 [2]): 13.3 µM
27 | – | – | COc1ccc2[nH]c([S+]([O-])Cc3ncc(C)c(OC)c3C)nc2n1 (centres unmarked) [Tenatoprazole] | IC50 [3]: 7.8 µM; inhibition of DDAH activity, CPM fluorometric validation (human DDAH1 [2]): inhibited DDAH activity significantly
28 | – | – | O=c1c2ccccc2[se]n1-c1ccccc1 [ebselen] | inhibition of DDAH activity, CPM fluorometric validation (human DDAH1 [2]): confirmed known DDAH inhibitors
